Structures can show the parent of a compound that is named as a salt.
system: Acinetobacter baumannii ATCC17961; assay: Antimicrobial susceptibility testing: 90% growth inhibitory concentration (IC90) determination, Iso-Sensitest broth; assay type: cell-based; settings: Acinetobacter baumannii, ATCC17961, 16 h, 90% growth inhibitory concentration, Acinetobacter baumannii ATCC17961, Iso-Sensitest broth, OD 600 nm over 16 h; read-out: ATCC17961 IC90
Description: Antimicrobial Susceptibility Testing:
90% Growth Inhibitory Concentration (IC90) Determination
The in vitro antimicrobial activity of the compounds was determined according to the following procedure:
The assay used a 10-points Iso-Sensitest broth medium to measure quantitatively the in vitro activity of the compounds against Acinetobacter baumannii ATCC17978 and Acinetobacter baumannii ATCC17961.
Stock compounds in DMSO were serially twofold diluted (e.g. range from 50 to 0.097 μM final concentration) in 384 wells microtiter plates and inoculated with 49 μl the bacterial suspension in Iso-Sensitest medium to have a final cell concentration of 5×10^(5) CFU/ml in a final volume/well of 50 ul/well. Microtiter plates were incubated at 35±2° C.
Bacterial cell growth was determined with the measurement of optical density at λ=600 nm each 20 minutes over a time course of 16 h. Growth inhibition was calculated during the logarithmic growth of the bacterial cells with determination of the concentration inhibiting 50% (IC50) and 90% (IC90) of the growth.
Table 1 provides the 90% growth inhibitory concentrations (IC90) in micromoles per liter of the compounds of present invention obtained against the strain Acinetobacter baumannii ATCC17978 and Acinetobacter baumannii ATCC17961.

**Q.** Which IC90 does the source give for `Cc1cc(Nc2nccn3c(-c4ccc(OCC#N)c(F)c4Cl)cnc23)ccc1C(=O)N1CCN(C(=O)C2CCNCC2)CC1` [Example 209, 2-[3-chloro-2-fluoro-4-[8-[3-methyl-4-[4-(piperidine-4-carbonyl)piperazine-1-carbonyl]anilino]imidazo[1,2-a]pyrazin-3-yl]phenoxy] acetonitrile formate] here?
**A.** 68 nM

**Q.** How did the IC90 turn out when `COc1ccc(-c2cnc3c(Nc4ccc(C(=O)N5CCN(C(=O)[C@@H]6NCC[C@@H]6O)CC5)c(C)c4)nccn23)c(F)c1F` [Example 79, [4-[[3-(2,3-difluoro-4-methoxyphenyl)imidazo[1,2-a]pyrazin-8-yl]amino]-2-methylphenyl]-[4-[(2R,3S)-3-hydroxypyrrolidine-2-carbonyl]piperazin-1-yl]methanone;hydrochloride] was run?
**A.** 167 nM

**Q.** For `COc1ccc(-c2cnc3c(Nc4ccc(C(=O)N5CCN(C(=O)[C@@H]6C[C@@H](O)CN6)CC5)c(C)c4F)nccn23)c(F)c1F` [Example 576, (4-(4-((3-(2,3-difluoro-4-methoxyphenyl)imidazo[1,2-a]pyrazin-8-yl)amino)-3-fluoro-2-methylbenzoyl)piperazin-1-yl)((2S,4R)-4-hydroxypyrrolidin-2-yl)methanone dihydrochloride], which IC90 is on record?
**A.** 236 nM

**Q.** Which IC90 does the source give for `Cc1cc(Nc2nccn3c(-c4ccc(OC(F)F)cc4)cnc23)ccc1C(=O)N1CCN(C(=O)N[C@@H]2CNC[C@H]2O)CC1` (racemic) [Example 170, 4-[4-[[3-[4-(difluoromethoxy)phenyl]imidazo[1,2-a]pyrazin-8-yl]amino]-2-methyl-benzoyl]-N-[rac-(3R,4R)-4-hydroxypyrrolidin-3-yl]piperazine-1-carboxamide hydrochloride] here?
**A.** 35 nM

**Q.** Which IC90 does the source give for `CC[C@]1(O)CN[C@H](C(=O)N2CCN(C(=O)c3ccc(Nc4nccn5c(-c6ccc(OC)c(F)c6)cnc45)cc3C)CC2)C1` [Example 464, [4-[(2S,4R)-4-ethyl-4-hydroxypyrrolidine-2-carbonyl]piperazin-1-yl]-[4-[[3-(3-fluoro-4-methoxyphenyl)imidazo[1,2-a]pyrazin-8-yl]amino]-2-methylphenyl]methanone; for-mic acid] here?
**A.** 137 nM

**Q.** For `COc1ccc(-c2cnc3c(Nc4ccc(C(=O)N5CCN(C(=O)[C@@H]6C[C@@H](O)CN6)CC5)c(C)c4)nccn23)c(F)c1F` [Example 184, [4-[[3-(2,3-difluoro-4-methoxy-phenyl)imidazo[1,2-a]pyrazin-8-yl]amino]-2-methyl-phenyl]-[4-[(2S,4R)-4-hydroxypyrrolidine-2-carbonyl]piperazin-1-yl]methanone hydrochloride], which IC90 is on record?
**A.** 41 nM

**Q.** How did the IC90 turn out when `Cc1cc(Nc2nccn3c(-c4ccc(OCC#N)c(F)c4Cl)cnc23)ccc1C(=O)N1CCN(C(=O)NCCN)CC1` [Example 159, N-(2-aminoethyl)-4-[4-[[3-[2-chloro-4-(cyanomethoxy)-3-fluoro-phenyl]imidazo[1,2-a]pyrazin-8-yl]amino]-2-methyl-benzoyl]piperazine-1-carboxamide formate] was run?
**A.** 35 nM

**Q.** `COc1ccc(-c2cnc3c(Nc4ccc(C(=O)N5CCN(C(=O)C6(C)CCCN6)CC5)c(C)c4)nccn23)c(F)c1F` (stereo not drawn) [Example 80, (4-(4-((3-(2,3-difluoro-4-methoxyphenyl)imidazo[1,2-a]pyrazin-8-yl)amino)-2-methylbenzoyl)piperazin-1-yl)(2-methylpyrrolidin-2-yl)methanone hydrochloride] was tested. Which IC90 did it give?
**A.** 81 nM

**Q.** For `COc1ccc(-c2cnc3c(Nc4ccc(C(=O)N5CCC(C(=O)NCC(O)CN6CCOCC6)CC5)c(C)c4)nccn23)c(F)c1F` (stereo not drawn) [Example 572, 1-(4-((3-(2,3-difluoro-4-methoxyphenyl)imidazo[1,2-a]pyrazin-8-yl)amino)-2-methylbenzoyl)-N-(2-hydroxy-3-morpholinopropyl)piperidine-4-carboxamide], which IC90 is on record?
**A.** 216 nM

**Q.** With `COc1ccc(-c2cnc3c(Nc4ccc(C(=O)N5CCN(C(=O)[C@@H]6C[C@H](F)CN6)CC5)c(C)c4)nccn23)c(F)c1F` [Example 83, (4-(4-((3-(2,3-difluoro-4-methoxyphenyl)imidazo[1,2-a]pyrazin-8-yl)amino)-2-methylbenzoyl)piperazin-1-yl)((2S,4S)-4-fluoropyrrolidin-2-yl)methanone hydrochloride] as the compound, how does the IC90 read?
**A.** 85 nM

**Q.** How did the IC90 turn out when `Cc1cc(Nc2nccn3c(-c4ccc(OCC#N)c(F)c4Cl)cnc23)ccc1C(=O)N1CCN(C(=O)[C@H]2CCNC[C@@H]2O)CC1` [Example 220, 2-[3-chloro-2-fluoro-4-[8-[4-[4-[(3R,4S)-3-hydroxypiperidine-4-carbonyl]piperazine-1-carbonyl]-3-methyl-anilino]imidazo[1,2-a]pyrazin-3-yl]phenoxy] acetonitrile formate] was run?
**A.** 64 nM

**Q.** Which IC90 does the source give for `COc1ccc(-c2cnc3c(Nc4ccc(C(=O)N5CCN(C(=O)[C@@H]6C[C@@](O)(C(F)(F)F)CN6)CC5)c(C)c4)nccn23)c(F)c1F` [Example 582, (4-(4-((3-(2,3-difluoro-4-methoxyphenyl)imidazo[1,2-a]pyrazin-8-yl)amino)-2-methylbenzoyl)piperazin-1-yl)((2S,4S)-4-hydroxy-4-(trifluoromethyl)pyrrolidin-2-yl)methanone hydrochloride] here?
**A.** 273 nM

**Q.** `COc1ccc(-c2cnc3c(Nc4ccc(C(=O)N5CCN(C(=O)[C@H](CCCN)NC(=O)[C@@H](N)CCC(=O)O)CC5)c(C)c4)nccn23)c(F)c1F` [Example 535, (4S)-4-amino-5-[[2S)-5-amino-1-[4-[4-[[3-(2,3-difluoro-4-methoxyphenyl)imidazo[1,2-a]pyrazin-8-yl]amino]-2-methylbenzoyl]piperazin-1-yl]-1-oxopentan-2-yl]amino]-5-oxopentanoic acid; hydrochloride] was tested. Which IC90 did it give?
**A.** 1920 nM

**Q.** With `COc1ccc(-c2cnc3c(Nc4ccc(C(=O)N5CCC(C(=O)NCC(O)CNC(N)=O)CC5)c(C)c4)nccn23)c(F)c1F` (stereo not drawn) [Example 88, 1-(4-((3-(2,3-difluoro-4-methoxyphenyl)imidazo[1,2-a]pyrazin-8-yl)amino)-2-methylbenzoyl)-N-(2-hydroxy-3-ureidopropyl)piperidine-4-carboxamide] as the compound, how does the IC90 read?
**A.** 195 nM

**Q.** `COc1ccc(-c2cnc3c(Nc4ccc(C(=O)N5CCN(C(=O)[C@H]6C[C@H](O)CN6)CC5)c(C)c4)nccn23)c(F)c1F` (racemic) [Example 228, [4-[[3-(2,3-difluoro-4-methoxy-phenyl)imidazo[1,2-a]pyrazin-8-yl]amino]-2-methyl-phenyl]-[4-[rac-(2R,4S)-4-hydroxy-pyrrolidine-2-carbonyl]piperazin-1-yl]methanone] was tested. Which IC90 did it give?
**A.** 104 nM

**Q.** With `COc1ccc(-c2cnc3c(Nc4ccc(C(=O)N5CCC(C(=O)N6C[C@@H](O)[C@@H](O)[C@@H](O)C6)CC5)c(C)c4)nccn23)c(F)c1F` [Example 569, (1-(4-((3-(2,3-difluoro-4-methoxyphenyl)imidazo[1,2-a]pyrazin-8-yl)amino)-2-methylbenzoyl)piperidin-4-yl)((3R,4s,5S)-3,4,5-trihydroxypiperidin-1-yl)methanone] as the compound, how does the IC90 read?
**A.** 205 nM

**Q.** How did the IC90 turn out when `COc1ccc(-c2cnc3c(Nc4ccc(C(=O)N5CCN(C(=O)[C@@H]6C[C@@H](O)CN6)CC5)c(C)c4)nccn23)c(F)c1Cl` [Example 93, (4-(4-((3-(3-chloro-2-fluoro-4-methoxyphenyl)imidazo[1,2-a]pyrazin-8-yl)amino)-2-methylbenzoyl)piperazin-1-yl)((2S,4R)-4-hydroxypyrrolidin-2-yl)methanone hydrochloride] was run?
**A.** 84 nM

same assay, conditions: Acinetobacter baumannii, ATCC17961, 16 h, read-out: ATCC17961 IC90

**Q.** Which IC90 does the source give for `COc1ccc(-c2cnc3c(Nc4ccc(C(=O)N5CCN(C(=O)[C@]6(O)CNCC[C@H]6O)CC5)c(C)c4)nccn23)c(F)c1F` [Example 288, [4-[[3-(2,3-difluoro-4-methoxyphenyl)imidazo[1,2-a]pyrazin-8-yl]amino]-2-methylphenyl]-[4-[(3S,4R)-3,4-dihydroxypiperidine-3-carbonyl]piperazin-1-yl]methanone; hydrochloride] here?
**A.** 88 nM

**Q.** For `COc1ccc(-c2cnc3c(Nc4ccc(C(=O)N5CCN(C(=O)[C@H]6NCC[C@H]6O)CC5)c(C)c4)nccn23)c(F)c1F` [Example 78, (4-(4-((3-(2,3-difluoro-4-methoxyphenyl)imidazo[1,2-a]pyrazin-8-yl)amino)-2-methylbenzoyl)piperazin-1-yl)((2S,3R)-3-hydroxypyrrolidin-2-yl)methanone hydrochloride], which IC90 is on record?
**A.** 87 nM

**Q.** How did the IC90 turn out when `CCc1cc(Nc2nccn3c(-c4ccc(OC(F)F)c(F)c4F)cnc23)ccc1C(=O)N1CCC(C(=O)NCC2CCNC2)CC1` (stereo not drawn) [Example 590, 1-(4-((3-(4-(difluoromethoxy)-2,3-difluorophenyl)imidazo[1,2-a]pyrazin-8-yl)amino)-2-ethylbenzoyl)-N-(pyrrolidin-3-ylmethyl)piperidine-4-carboxamide 2,2,2-trifluoroacetate formate] was run?
**A.** 30 nM

**Q.** For `COc1ccc(-c2cnc3c(Nc4ccc(C(=O)N5CCN(C(=O)[C@@H]6C[C@](C)(O)CN6)CC5)c(C)c4)nccn23)cc1F` [Example 461, [4-[[3-(3-fluoro-4-methoxyphenyl)imidazo[1,2-a]pyrazin-8-yl]amino]-2-methylphenyl]-[4-[(2S,4S)-4-hydroxy-4-methylpyrrolidine-2-carbonyl]piperazin-1-yl]methanone; formic acid], which IC90 is on record?
**A.** 148 nM

— US20230011869A1 (Hoffmann-La Roche Inc., priority 2018, published 2023)
